We go through one compound from patent US4195101A, “2',6'-Dihydroxy-9-(2,5-dihydroxyphenyl)octylphenone and its use as an anti-oxidant” (The Lion Dentifrice Co. Ltd., priority 1977, dated 1980).

SMILES strings stand for the structures.

The nature of data set [1]: Test I: peroxide value of refined lard by the active oxygen method (AOM). The note with it: 0.02% by weight in lard, 97.5° C. Here is the method: (§1) The above-obtained compound was tested for its anti-oxidative effects in terms of peroxide value by the active oxygen method (AOM) and also in terms of oxygen absorption. […] Each of the tests I and II are described below together with the results thereof.
Varied amounts of the compound were admixed with and uniformly dissolved in portions of refined lard each weighing 20 g to prepare test samples. Each test sample was kept in an oil bath of thermostat at 97.5°±0.5° C., while air was forcedly blown into the lard at a rate of […].
The thus treated samples of the lard were analyzed for the peroxide value (POV for brevity) periodically or at certain intervals, in accordance with the modified Lea's method as described in "Yukagaku" (Journal of Japan Oil Chemist Society), vol. 19(15), p. 340, 1970.
In comparison, similar experiments were undertaken for the samples of the same lard with addition of BHA instead of the compound of the present invention or without addition of any anti-oxidant.

The nature of data set [2]: Test II: oxygen absorption in corn salad oil, Warburg's manometer. The note with it: 0.02% by weight in corn salad oil, 60° C. Here is the method: as §1
The compound of the present invention was determined for the rate of oxygen absorption in a corn salad oil to which 0.02% by weight of the compound had been added. For the purpose, 2 grams of the corn salad oil sample was taken in the receptacle of Warburg's manometer with thermostat at 60°±0.1° C., which was shaken with 110 vibrations per minute in a vibration amplitude of 60 mm. The rate of oxygen absorption was determined by reading the manometer according to the procedure set forth in "Jikken Kagaku Koza" (Lectures in Experimental Chemistry), vol. 24, p. 85, 1958, Maruzen Publishing, Japan. In this testing, the receptacle was totally wrapped with an aluminum foil to prevent the photooxidation of the oil, and mercury was used as the manometer fluid in place of Brodie's solution in order to minimize any possible influence caused by fluctuations in the atmospheric pressure.
Further, in comparison, a similar test was conducted using the same corn salad oil with addition of 0.02% by weight of BHA or without addition of any anti-oxidant.

The next data set relates to mouse. To be noted: comparison value for BHA; cited from earlier work.

Regarding `COc1ccc(O)c(C(C)(C)C)c1` [BHA, butylhydroxyanisole, reference compound], the Peroxide value in data set [1] (8 hours) turned out to be 2.8 meq./kg; in data set [1] (16 hours), 5.1 meq./kg; in data set [1] (24 hours), 7.9 meq./kg; in data set [1] (32 hours), 13.8 meq./kg; in data set [1] (40 hours) it was 28.9 meq./kg; in data set [1] (48 hours) it was 33.1 meq./kg. Besides, the Peroxide value in data set [1] (56 hours) is listed as 43.1 meq./kg; in data set [1] (64 hours), 97.3 meq./kg; in data set [1] (72 hours), 296.7 meq./kg. Further, the Oxygen absorption in data set [2] (85 hours) was found to be 57.6 μ1/g; in data set [2] (140 hours) it was 116.2 μ1/g; in data set [2] (166 hours), 174.8 μ1/g; in data set [2] (199 hours) it was 219.0 μ1/g; in data set [2] (263 hours) it was 478.9 μ1/g; in data set [2] (288 hours), 697.8 μ1/g. Further, the Oxygen absorption in data set [2] (320 hours) is given as 922.9 μ1/g; in data set [2] (343 hours), 1124.2 μ1/g. Moreover, in the data set on mouse, the LD50 value was 1,100 mg/kg.
